Experiments:
[1] = molecular target: T1, Sodium-dependent dopamine transporter (Rattus norvegicus, UniProt P23977); assay: Inhibitory constant towards reuptake of [125I]-12 from dopamine transporter in rat striatal membranes; format: cell membranes, Membrane
[2] = molecular target: T1, Sodium-dependent dopamine transporter; assay: Inhibitory constant towards reuptake of [125I]-13 from dopamine transporter in rat striatal membranes; format: cell membranes, Membrane

T1 sequence (P23977 whole entry): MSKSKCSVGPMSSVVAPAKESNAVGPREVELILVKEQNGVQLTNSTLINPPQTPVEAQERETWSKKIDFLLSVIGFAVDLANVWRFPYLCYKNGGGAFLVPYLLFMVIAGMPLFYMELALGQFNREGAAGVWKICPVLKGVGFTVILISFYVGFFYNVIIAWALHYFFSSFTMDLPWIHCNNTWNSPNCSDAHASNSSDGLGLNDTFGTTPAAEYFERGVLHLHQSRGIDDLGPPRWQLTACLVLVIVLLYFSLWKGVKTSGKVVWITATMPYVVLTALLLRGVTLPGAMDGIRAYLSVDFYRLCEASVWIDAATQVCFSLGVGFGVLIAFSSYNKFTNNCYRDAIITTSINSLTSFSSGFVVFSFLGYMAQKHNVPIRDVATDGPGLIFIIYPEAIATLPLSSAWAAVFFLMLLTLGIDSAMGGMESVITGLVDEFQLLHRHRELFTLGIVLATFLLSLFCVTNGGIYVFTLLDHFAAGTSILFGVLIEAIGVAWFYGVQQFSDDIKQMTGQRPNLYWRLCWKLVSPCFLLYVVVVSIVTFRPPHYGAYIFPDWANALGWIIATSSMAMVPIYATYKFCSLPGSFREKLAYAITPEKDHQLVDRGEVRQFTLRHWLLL

OC1(c2ccc(Cl)cc2)c2ccccc2C2=NCCN21 (configuration not stated) [MAZINDOL]
Ki [1]: 32 nM
Ki [2]: 41.6 nM
